Laboratory results published in patent publication US20240246946A1, “MODULATORS OF TREX1” (Constellation Pharmaceuticals, Inc., priority 2021, published 2024).

Columns and labels:
full length human TREX1 = molecular target: T1, full length human TREX1 (Homo sapiens, UniProt Q9NSU2); experiment: hTREX1 Biochemical Assay (fluorescence, dsDNA substrate degradation); settings: biochemical, read-out: hTREX1 IC50
T1 construct: N-terminally His-Tev tagged full length human TREX1; made in house; host or cells: E. coli
T1 sequence (Q9NSU2 1-314): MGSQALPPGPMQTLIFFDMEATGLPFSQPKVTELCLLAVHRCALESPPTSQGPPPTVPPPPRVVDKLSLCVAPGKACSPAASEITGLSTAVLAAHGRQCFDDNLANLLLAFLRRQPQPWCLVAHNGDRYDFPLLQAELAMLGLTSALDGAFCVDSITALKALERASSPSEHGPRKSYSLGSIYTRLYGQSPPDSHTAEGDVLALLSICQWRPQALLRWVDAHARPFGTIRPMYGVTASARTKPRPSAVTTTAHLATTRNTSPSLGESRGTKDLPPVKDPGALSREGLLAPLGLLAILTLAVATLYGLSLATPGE
Procedure, shortened: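 Fluorescence rises as enzyme degrades a quenched TEX615-labelled dsDNA substrate (60 nM) in 50 mM Tris, 150 mM NaCl, 5 mM MgCl2, pH 7.4. Full-length His-Tev-tagged human TREX1, 4 pM, sits with compound 4 hours at 25° C before substrate; reaction 18 hours, stopped with EDTA.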

hTREX1 = molecular target: T2, hTREX1 (Homo sapiens, UniProt Q9NSU2); experiment: hTREX1 HCT116 Cell Assay (HCT116 dual cells, Lucia luciferase reporter of Type I interferon induction); assay type: cell-based; settings: TREX1i 4 h before pBR322/BstNI transfection, read after 48 h
T2 construct: host or cells: HCT116 dual cells
T2 sequence (Q9NSU2 1-314): T1 sequence (Q9NSU2 1-314)
Procedure, shortened: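 Type I interferon induction read as secreted Lucia luciferase 48 h after transfecting pBR322/BstNI digest (1 ug/mL, 100 ng/well) into HCT116 dual reporter cells. Compound added 4 h before transfection at up to 0.1% DMSO; cells in DMEM/10% FBS/25 mM HEPES at 37 °C.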

[1] = molecular target: T3, human TREX2 (residues M44-A279) (Homo sapiens, UniProt Q9BQ50); experiment: hTREX2 Biochemical Assay (fluorescence, dsDNA substrate degradation); settings: biochemical selectivity for hTREX1 vs hTREX2
T3 construct: human TREX2 (residues M44-A279, expressed in E. coli); made in house; host or cells: E. coli
T3 sequence (Q9BQ50 44-279 isoform Q9BQ50-1): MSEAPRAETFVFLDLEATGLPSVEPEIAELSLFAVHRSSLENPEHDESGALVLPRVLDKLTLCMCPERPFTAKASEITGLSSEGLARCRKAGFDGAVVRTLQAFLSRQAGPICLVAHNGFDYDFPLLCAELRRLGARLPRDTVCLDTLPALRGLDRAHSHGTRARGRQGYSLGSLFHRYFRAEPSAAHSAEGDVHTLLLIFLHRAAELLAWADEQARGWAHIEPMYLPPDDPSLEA
Procedure, shortened: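 Fluorogenic dsDNA degradation read at 615 nm (570 nm excitation) after EDTA quench. Final 60 nM substrate, 50 pM His-Tev-tagged enzyme, 5 mM MgCl2, pH 7.4, 1.0% DMSO; 4 h compound–enzyme preincubation then 18 h reaction, both 25 °C; 10-point titration.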

full length mouse TREX1 = molecular target: T4, full length mouse TREX1 (Mus musculus, UniProt Q91XB0); experiment: mTREX1 Biochemical Assay (fluorescence, dsDNA substrate degradation); settings: biochemical, read-out: mTREX1 IC50
T4 construct: N-terminally His-Tev tagged full length mouse TREX1; made in house; host or cells: E. coli
T4 sequence (Q91XB0 1-314): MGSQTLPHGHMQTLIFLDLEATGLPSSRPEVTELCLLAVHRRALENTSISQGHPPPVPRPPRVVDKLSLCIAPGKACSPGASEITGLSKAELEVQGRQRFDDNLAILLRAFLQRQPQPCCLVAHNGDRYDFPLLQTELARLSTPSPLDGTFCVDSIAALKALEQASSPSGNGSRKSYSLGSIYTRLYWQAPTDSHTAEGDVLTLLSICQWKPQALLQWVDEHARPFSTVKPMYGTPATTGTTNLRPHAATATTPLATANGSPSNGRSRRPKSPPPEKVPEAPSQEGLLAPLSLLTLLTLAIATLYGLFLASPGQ
Procedure, shortened: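 Reaction run 18 h at 25° C. with 60 nM TEX615/quencher-labelled dsDNA and 6 pM mouse TREX1 in Tris buffer (pH 7.4, 5 mM MgCl2, 1.0% DMSO), enzyme having sat 4 h with compound across 10 concentrations. EDTA quench; substrate degradation measured as fluorescence increase.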

Compound | IC50 (full length human TREX1) [nM] | IC50 (hTREX1) [nM] | hTREX1 vs hTREX2 selectivity [1] | IC50 (full length mouse TREX1) [nM]
Cc1cnc(C)c(C(c2cc(F)ccc2Cl)C(C)c2nc(C(=O)Nc3cnoc3)c(O)c(=O)n2C)n1 (single isomer, unassigned) [Example 121 D2E1] | > 10 | > 100 | B (B = 25 to 50-fold selective for hTREX1) | > 10
Cc1nc(C)c(C(c2ccccc2C#N)C(C)c2nc(C(=O)Nc3cnoc3)c(O)c(=O)n2C)nc1C (single isomer, unassigned) [Example 122 D2E1] | 1 to 10 | > 100 | B (B = 25 to 50-fold selective for hTREX1) | > 10
Cc1cnc(C(c2ccccc2C#N)C(C)c2nc(C(=O)Nc3cnoc3)c(O)c(=O)n2C)c(C)n1 (single isomer, unassigned) [Example 123 D1E1] | 1 to 10 | > 100 | C (C = >50 fold selective for hTREX1) | 1 to 10
Cc1ncc(C(c2ccccc2Cl)C(C)c2nc(C(=O)Nc3cnoc3)c(O)c(=O)n2C)nc1C (single isomer, unassigned) [Example 125 D2E1] | 1 to 10 | > 100 | A (A = <25 fold selective for hTREX1) | > 10
CC(c1nc(C(=O)Nc2cnoc2)c(O)c(=O)n1C)C(c1ccccc1C#N)c1c[nH]nc1F (single isomer, unassigned) [Example 127 D1E1] | < 1 | < 10 | B (B = 25 to 50-fold selective for hTREX1) | < 1
CC(c1nc(C(=O)Nc2cnoc2)c(O)c(=O)n1C)C(c1ccccc1C#N)c1c[nH]nc1F (single isomer, unassigned) [Example 127 D1E2] | 1 to 10 | > 100 | B (B = 25 to 50-fold selective for hTREX1) | > 10
CC(c1nc(C(=O)Nc2cnoc2)c(O)c(=O)n1C)C(c1ccccc1Cl)c1cn(C)nc1F (single isomer, unassigned) [Example 130 D1E1] | < 1 | < 10 | B (B = 25 to 50-fold selective for hTREX1) | < 1
Cc1ccn(C(c2ccccc2C#N)C(C)c2nc(C(=O)Nc3cnoc3)c(O)c(=O)n2C)n1 (single isomer, unassigned) [Example 132 D1E2] | < 1 | 10 to 100 | C (C = >50 fold selective for hTREX1) | 1 to 10
Cc1cnn(C(c2ccccc2Cl)C(C)c2nc(C(=O)Nc3cnoc3)c(O)c(=O)n2C)c1 (single isomer, unassigned) [Example 133 D1E2] | 1 to 10 | 10 to 100 | A (A = <25 fold selective for hTREX1) | 1 to 10
CCc1cnn(C(c2ccccc2Cl)C(C)c2nc(C(=O)Nc3cnoc3)c(O)c(=O)n2C)c1 (single isomer, unassigned) [Example 134 D1E1] | 1 to 10 | > 100 | A (A = <25 fold selective for hTREX1) | 1 to 10
CC(C)c1cnn(C(c2ccccc2Cl)C(C)c2nc(C(=O)Nc3cnoc3)c(O)c(=O)n2C)c1 (single isomer, unassigned) [Example 135 D1E1] | 1 to 10 | > 100 | B (B = 25 to 50-fold selective for hTREX1) | 1 to 10
Cc1cc(C)n(C(c2ccccc2Cl)C(C)c2nc(C(=O)Nc3cnoc3)c(O)c(=O)n2C)n1 (single isomer, unassigned) [Example 136 D1E2] | < 1 | 10 to 100 | B (B = 25 to 50-fold selective for hTREX1) | > 10
Cc1cc(C)n(C(c2ccccc2C#N)C(C)c2nc(C(=O)Nc3cnoc3)c(O)c(=O)n2C)n1 (single isomer, unassigned) [Example 137 D1E1] | < 1 | < 10 | B (B = 25 to 50-fold selective for hTREX1) | 1 to 10
Cc1ccnn1C(c1ccccc1C#N)C(C)c1nc(C(=O)Nc2cnoc2)c(O)c(=O)n1C (single isomer, unassigned) [Example 138 D1E1] | < 1 | 10 to 100 | B (B = 25 to 50-fold selective for hTREX1) | 1 to 10
CC(c1nc(C(=O)Nc2cnoc2)c(O)c(=O)n1C)C(c1ccccc1Cl)n1cc(C(F)(F)F)cn1 (single isomer, unassigned) [Example 139 D1E1] | 1 to 10 | > 100 | A (A = <25 fold selective for hTREX1) | 1 to 10
CC(c1nc(C(=O)Nc2cnoc2)c(O)c(=O)n1C)C(c1ccccc1Cl)n1nccc1C#N (single isomer, unassigned) [Example 140 D1E1] | < 1 | 10 to 100 | B (B = 25 to 50-fold selective for hTREX1) | 1 to 10
CC(c1nc(C(=O)Nc2cnoc2)c(O)c(=O)n1C)C(c1ccccc1Cl)n1cc2ccccc2n1 (single isomer, unassigned) [Example 141 D1E1] | 1 to 10 | > 100 | A (A = <25 fold selective for hTREX1) | 1 to 10
Cc1cn(C(c2ccccc2Cl)C(C)c2nc(C(=O)Nc3cnoc3)c(O)c(=O)n2C)cn1 (single isomer, unassigned) [Example 142 D1E2] | < 1 | > 100 | A (A = <25 fold selective for hTREX1) | 1 to 10
CC(c1nc(C(=O)Nc2cnoc2)c(O)c(=O)n1C)C(c1ccccc1Cl)n1cnc2ccccc21 (single isomer, unassigned) [Example 143 D1E1] | < 1 | 10 to 100 | B (B = 25 to 50-fold selective for hTREX1) | 1 to 10
Cc1cnn(C(c2cc(F)ccc2Cl)C(C)c2nc(C(=O)Nc3cnoc3)c(O)c(=O)n2C)c1 (single isomer, unassigned) [Example 144 D1E2] | 1 to 10 | > 100 | A (A = <25 fold selective for hTREX1) | > 10
Cc1ccnn1C(c1cc(F)ccc1Cl)C(C)c1nc(C(=O)Nc2cnoc2)c(O)c(=O)n1C (single isomer, unassigned) [Example 145 D1E1] | 1 to 10 | 10 to 100 | B (B = 25 to 50-fold selective for hTREX1) | > 10
Cc1ccn(C(c2cc(F)ccc2Cl)C(C)c2nc(C(=O)Nc3cnoc3)c(O)c(=O)n2C)n1 (single isomer, unassigned) [Example 146 D1E1] | 1 to 10 | > 100 | C (C = >50 fold selective for hTREX1) | > 10
CC(c1nc(C(=O)Nc2cnoc2)c(O)c(=O)n1C)C(c1ccccc1Cl)n1nccc1C(N)=O (single isomer, unassigned) [Example 147 D1E1] | < 1 | 10 to 100 | C (C = >50 fold selective for hTREX1) | > 10
CC(c1nc(C(=O)Nc2cnoc2)c(O)c(=O)n1C)C(c1cnn(C(F)(F)F)c1)c1ccccc1C#N (single isomer, unassigned) [Example 151 D1E1] | < 1 | 10 to 100 | B (B = 25 to 50-fold selective for hTREX1) | < 1
